Assays:
Assay in all cases: scanMax kinase panel (Eurofins)
Assay type in all cases: binding
HIPK3 = biological target: T1, HIPK3 (Homo sapiens, UniProt Q9H422); conditions: HIPK3, 1 μM; read-out: % control
T1 construct: purchased Eurofins
Procedure: (§1) The following assay method was performed to evaluate the inhibitory activities of a compound according to the present invention with respect to various enzymes. […] The compound was applied to the enzyme at a concentration of 1 μM, dissolved in DMSO, and the % control was determined according to Equation 1 below.
(§2) Here, the positive control refers to a compound corresponding to 0% control, and the negative control refers to a compound corresponding to 100% control.

YES1 = biological target: T2, YES1 (Homo sapiens, UniProt P07947); conditions: YES1, 1 μM; read-out: % control
T2 construct: purchased Eurofins scanMax kinase panel
Procedure: as §1, §2

MAP3K2 = biological target: T3, MAP3K2 (Homo sapiens, UniProt Q9Y2U5); conditions: MAP3K2, 1 μM; read-out: % control
T3 construct: purchased Eurofins
Procedure: as §1, §2

PAK6 = biological target: T4, PAK6 (Homo sapiens, UniProt Q9NQU5); conditions: PAK6, 1 μM; read-out: % control
T4 construct: purchased Eurofins scanMax kinase panel
Procedure: as §1, §2

AXL = biological target: T5, AXL (Homo sapiens, UniProt P30530); conditions: read-out: % control
T5 construct: purchased Eurofins
Procedure: as §1, §2

AURKB = biological target: T6, AURKB (Homo sapiens, UniProt Q96GD4); conditions: read-out: % control
T6 construct: purchased Eurofins
Procedure: as §1, §2

ROCK2 = biological target: T7, ROCK2 (Homo sapiens, UniProt O75116); conditions: ROCK2, 1 μM; read-out: % control
T7 construct: purchased Eurofins scanMax kinase panel
Procedure: as §1, §2

MEK6 = biological target: T8, MEK6 (Homo sapiens, UniProt P52564); conditions: MEK6, 1 μM; read-out: % control
T8 construct: purchased Eurofins scanMax kinase panel
Procedure: as §1, §2

[1] = biological target: T9, JAKI(JH1domain-catalytic) (Homo sapiens, UniProt P23458); conditions: read-out: % control
T9 construct: JAKI(JH1domain-catalytic); purchased Eurofins
T9 sequence (P23458 875-1153 limits assumed): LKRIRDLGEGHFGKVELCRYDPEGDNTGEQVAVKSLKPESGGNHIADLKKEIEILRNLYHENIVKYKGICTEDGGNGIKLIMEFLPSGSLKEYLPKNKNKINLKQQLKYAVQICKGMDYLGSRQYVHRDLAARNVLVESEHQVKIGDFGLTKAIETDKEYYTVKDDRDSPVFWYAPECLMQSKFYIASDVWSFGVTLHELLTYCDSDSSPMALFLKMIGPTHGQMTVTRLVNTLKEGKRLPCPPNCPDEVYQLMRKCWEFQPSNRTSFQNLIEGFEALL
Procedure: as §1, §2

ERK4 = biological target: T10, ERK4 (Homo sapiens, UniProt P31152); conditions: ERK4, 1 μM; read-out: % control
T10 construct: purchased Eurofins scanMax® kinase panel
T10 sequence (P31152 whole entry): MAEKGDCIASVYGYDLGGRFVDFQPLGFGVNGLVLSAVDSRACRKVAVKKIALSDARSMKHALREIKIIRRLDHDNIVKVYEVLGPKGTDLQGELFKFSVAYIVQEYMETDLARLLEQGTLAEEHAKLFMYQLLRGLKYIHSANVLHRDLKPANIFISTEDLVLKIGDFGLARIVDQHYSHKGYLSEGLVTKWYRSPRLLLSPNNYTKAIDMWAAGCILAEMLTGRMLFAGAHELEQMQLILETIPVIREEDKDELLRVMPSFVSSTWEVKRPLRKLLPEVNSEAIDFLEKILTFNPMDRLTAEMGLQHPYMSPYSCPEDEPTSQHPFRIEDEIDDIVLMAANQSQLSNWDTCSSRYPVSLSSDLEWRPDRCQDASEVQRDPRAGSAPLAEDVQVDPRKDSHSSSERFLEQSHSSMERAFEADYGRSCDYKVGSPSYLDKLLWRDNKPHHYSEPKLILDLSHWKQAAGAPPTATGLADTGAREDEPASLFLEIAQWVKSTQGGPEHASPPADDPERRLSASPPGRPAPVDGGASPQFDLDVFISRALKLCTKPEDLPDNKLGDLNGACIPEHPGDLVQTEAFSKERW
Procedure: as §1, §2

PAKI = biological target: T11, PAKI (Homo sapiens, UniProt Q13153); conditions: read-out: % control
T11 construct: purchased Eurofins scanMax kinase panel
Procedure: as §1, §2

PAK7 = biological target: T12, PAK7 (Homo sapiens, UniProt Q9P286); conditions: PAK7, 1 μM; read-out: % control
T12 construct: purchased Eurofins scanMax kinase panel
T12 sequence (Q9P286 whole entry): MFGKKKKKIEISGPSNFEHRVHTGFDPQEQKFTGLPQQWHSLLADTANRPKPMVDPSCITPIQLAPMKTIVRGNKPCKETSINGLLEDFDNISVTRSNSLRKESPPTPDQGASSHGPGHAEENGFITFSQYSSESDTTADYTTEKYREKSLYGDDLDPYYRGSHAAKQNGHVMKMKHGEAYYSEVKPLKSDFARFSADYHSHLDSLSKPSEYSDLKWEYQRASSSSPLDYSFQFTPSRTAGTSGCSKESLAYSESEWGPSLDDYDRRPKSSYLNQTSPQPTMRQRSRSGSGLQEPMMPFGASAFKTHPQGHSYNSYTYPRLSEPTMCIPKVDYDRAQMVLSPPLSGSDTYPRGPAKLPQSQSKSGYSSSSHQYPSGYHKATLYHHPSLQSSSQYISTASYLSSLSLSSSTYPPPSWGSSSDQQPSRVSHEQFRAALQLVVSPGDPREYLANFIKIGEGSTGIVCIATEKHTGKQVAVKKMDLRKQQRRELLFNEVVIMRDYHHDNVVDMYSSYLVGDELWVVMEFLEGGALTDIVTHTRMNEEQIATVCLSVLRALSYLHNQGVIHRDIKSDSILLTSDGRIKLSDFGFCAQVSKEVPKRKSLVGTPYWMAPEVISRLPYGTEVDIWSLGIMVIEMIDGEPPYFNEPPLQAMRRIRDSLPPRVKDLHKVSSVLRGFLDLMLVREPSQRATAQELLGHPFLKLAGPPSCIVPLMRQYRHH
Procedure: as §1, §2

TRKB = biological target: T13, TRKB (Homo sapiens, UniProt Q16620); conditions: read-out: % control
T13 construct: purchased Eurofins scanMax kinase panel
Procedure: as §1, §2

[2] = biological target: T14, ABL1(Q252H)-phosphorylated (Homo sapiens, UniProt P00519, Q252H); conditions: read-out: % control
T14 construct: purchased Eurofins
Procedure: as §1, §2

MAP3K15 = biological target: T15, MAP3K15 (Homo sapiens, UniProt Q6ZN16); conditions: MAP3K15, 1 μM; read-out: % control
T15 construct: purchased Eurofins
T15 sequence (Q6ZN16 whole entry): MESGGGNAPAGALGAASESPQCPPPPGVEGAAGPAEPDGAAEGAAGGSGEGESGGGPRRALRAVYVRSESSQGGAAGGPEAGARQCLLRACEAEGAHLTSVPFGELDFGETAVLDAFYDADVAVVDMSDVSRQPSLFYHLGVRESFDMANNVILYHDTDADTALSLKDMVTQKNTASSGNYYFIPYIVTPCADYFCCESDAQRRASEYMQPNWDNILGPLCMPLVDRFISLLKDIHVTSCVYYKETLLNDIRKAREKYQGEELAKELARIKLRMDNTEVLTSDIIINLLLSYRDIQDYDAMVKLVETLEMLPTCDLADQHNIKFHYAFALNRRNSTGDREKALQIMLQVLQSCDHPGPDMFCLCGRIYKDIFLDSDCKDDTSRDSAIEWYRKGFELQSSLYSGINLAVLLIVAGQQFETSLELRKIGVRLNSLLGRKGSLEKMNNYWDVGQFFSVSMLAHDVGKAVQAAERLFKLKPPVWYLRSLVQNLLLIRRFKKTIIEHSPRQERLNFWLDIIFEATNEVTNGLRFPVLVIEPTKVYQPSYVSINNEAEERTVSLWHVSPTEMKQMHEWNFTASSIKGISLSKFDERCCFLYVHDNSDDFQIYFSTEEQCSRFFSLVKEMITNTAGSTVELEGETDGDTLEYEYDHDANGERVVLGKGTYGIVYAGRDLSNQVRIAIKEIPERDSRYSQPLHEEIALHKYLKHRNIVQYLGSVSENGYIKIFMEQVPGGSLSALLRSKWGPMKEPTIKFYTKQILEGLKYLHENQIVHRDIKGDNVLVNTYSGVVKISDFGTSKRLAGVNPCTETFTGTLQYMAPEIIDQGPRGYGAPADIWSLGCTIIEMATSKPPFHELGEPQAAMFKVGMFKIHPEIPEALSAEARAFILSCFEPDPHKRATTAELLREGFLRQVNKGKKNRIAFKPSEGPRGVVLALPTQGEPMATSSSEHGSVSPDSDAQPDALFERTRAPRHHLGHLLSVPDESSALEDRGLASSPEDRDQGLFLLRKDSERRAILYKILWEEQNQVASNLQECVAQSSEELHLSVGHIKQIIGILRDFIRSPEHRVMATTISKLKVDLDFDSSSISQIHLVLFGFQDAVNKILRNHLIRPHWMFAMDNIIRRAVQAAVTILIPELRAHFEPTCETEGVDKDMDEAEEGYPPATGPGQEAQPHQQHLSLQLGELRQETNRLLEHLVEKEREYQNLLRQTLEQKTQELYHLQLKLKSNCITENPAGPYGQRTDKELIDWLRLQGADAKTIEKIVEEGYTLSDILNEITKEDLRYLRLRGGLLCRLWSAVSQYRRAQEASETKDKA
Procedure: as §1, §2

CDK3 = biological target: T16, CDK3 (Homo sapiens, UniProt Q00526); conditions: CDK3, 1 μM; read-out: % control
T16 construct: purchased Eurofins
T16 sequence (Q00526 whole entry): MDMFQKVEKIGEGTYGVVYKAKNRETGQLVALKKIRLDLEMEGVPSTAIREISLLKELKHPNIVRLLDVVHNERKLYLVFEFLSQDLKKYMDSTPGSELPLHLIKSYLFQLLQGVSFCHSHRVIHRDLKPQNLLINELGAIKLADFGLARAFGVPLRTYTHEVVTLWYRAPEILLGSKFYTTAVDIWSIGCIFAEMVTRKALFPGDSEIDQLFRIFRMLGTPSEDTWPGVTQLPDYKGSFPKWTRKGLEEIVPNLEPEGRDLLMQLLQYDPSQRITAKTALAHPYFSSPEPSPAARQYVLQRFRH
Procedure: as §1, §2

KIT(L576P) = biological target: T17, KIT(L576P) (Homo sapiens, UniProt P10721, L576P); conditions: read-out: % control
T17 construct: purchased Eurofins
Procedure: as §1, §2

ERK2 = biological target: T18, ERK2 (Homo sapiens, UniProt P28482); conditions: ERK2, 1 μM; read-out: % control
T18 construct: purchased Eurofins scanMax® kinase panel
T18 sequence (P28482 whole entry): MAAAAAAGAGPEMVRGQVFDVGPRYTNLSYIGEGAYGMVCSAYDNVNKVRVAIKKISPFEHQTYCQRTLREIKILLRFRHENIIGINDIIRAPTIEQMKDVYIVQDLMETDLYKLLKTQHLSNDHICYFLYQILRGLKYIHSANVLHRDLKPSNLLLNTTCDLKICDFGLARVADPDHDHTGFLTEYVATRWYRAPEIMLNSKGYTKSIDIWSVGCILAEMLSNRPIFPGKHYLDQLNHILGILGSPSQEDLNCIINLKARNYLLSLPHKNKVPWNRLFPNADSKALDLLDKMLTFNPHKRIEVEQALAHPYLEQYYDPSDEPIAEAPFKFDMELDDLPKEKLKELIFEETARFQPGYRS
Procedure: as §1, §2

Measured: remaining binding at 1 µM

T1 sequence (Q9H422 whole entry): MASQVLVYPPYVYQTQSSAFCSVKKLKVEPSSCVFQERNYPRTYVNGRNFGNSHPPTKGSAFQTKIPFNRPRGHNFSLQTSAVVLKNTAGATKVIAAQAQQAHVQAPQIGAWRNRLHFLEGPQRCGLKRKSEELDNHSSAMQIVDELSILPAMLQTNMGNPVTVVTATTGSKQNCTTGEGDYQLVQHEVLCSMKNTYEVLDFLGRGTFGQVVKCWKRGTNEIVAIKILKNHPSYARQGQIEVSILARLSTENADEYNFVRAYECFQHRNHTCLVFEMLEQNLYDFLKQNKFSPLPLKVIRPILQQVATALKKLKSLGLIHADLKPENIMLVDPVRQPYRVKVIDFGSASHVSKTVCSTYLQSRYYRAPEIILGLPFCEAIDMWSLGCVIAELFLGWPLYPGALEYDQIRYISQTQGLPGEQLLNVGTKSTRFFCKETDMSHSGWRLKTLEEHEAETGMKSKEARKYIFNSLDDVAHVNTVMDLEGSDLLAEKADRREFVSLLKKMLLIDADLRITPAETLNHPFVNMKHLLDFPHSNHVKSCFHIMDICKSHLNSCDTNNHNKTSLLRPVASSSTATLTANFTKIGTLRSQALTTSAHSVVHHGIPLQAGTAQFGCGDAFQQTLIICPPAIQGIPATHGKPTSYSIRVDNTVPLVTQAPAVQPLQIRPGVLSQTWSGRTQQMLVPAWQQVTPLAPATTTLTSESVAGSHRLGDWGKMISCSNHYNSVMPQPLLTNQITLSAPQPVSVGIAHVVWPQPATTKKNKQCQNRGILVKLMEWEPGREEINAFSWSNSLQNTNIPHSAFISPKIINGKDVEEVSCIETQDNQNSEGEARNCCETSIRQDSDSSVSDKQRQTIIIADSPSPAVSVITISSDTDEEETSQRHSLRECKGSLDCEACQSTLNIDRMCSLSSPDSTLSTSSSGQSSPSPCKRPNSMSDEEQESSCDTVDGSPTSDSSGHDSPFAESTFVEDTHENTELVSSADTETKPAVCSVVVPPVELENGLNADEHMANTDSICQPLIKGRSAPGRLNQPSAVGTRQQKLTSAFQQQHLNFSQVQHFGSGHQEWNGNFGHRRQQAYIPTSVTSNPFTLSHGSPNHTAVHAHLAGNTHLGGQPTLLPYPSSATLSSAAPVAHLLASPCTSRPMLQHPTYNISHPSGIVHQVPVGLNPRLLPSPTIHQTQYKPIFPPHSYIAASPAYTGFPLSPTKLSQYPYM

COc1ccc2nc(-c3n[nH]c4ccc(C(=O)N[C@H]5CC[C@H](N)C5)cc34)[nH]c2c1 [Example 32, N-((1S,3S)-3-aminocyclopentyl)-3-(6-methoxy-1H-benzo[d]imidazol-2-yl)-1H-indazole-5-carboxamide]
< 10%: all assays above

— US20260234129A1, “NOVEL IMIDAZOLE DERIVATIVE AND USE THEREOF” (PELEMED CO., LTD., priority 2023, published 2026)
